# Values of other authors as cited in patent publication EP4778540A1, “ANTIBODY-DRUG CONJUGATE CONTAINING HETEROCYCLIC COMPOUND HAVING ACTIVITY OF INDUCING DECOMPOSITION OF G12D MUTANT KRAS PROTEIN” (Astellas Pharma Inc., priority 2023, dated 2025).
# Where a name gives a salt, the structure may show the parent alone.
# Target: T1, mutant RAS G12D protein (Homo sapiens, UniProt P01116, G12D)
# T1 construct: endogenous in cells; host or cells: AsPC-1 (human pancreatic cancer line)
# Details: human G12D mutant KRAS-positive pancreatic cancer line AsPC-1, cited from earlier work; for DC50: DC50 of D10 calculated from a molecular weight in terms of 4 hydrochloride
# T1 sequence (P01116 1-188 isoform P01116-2 G12D): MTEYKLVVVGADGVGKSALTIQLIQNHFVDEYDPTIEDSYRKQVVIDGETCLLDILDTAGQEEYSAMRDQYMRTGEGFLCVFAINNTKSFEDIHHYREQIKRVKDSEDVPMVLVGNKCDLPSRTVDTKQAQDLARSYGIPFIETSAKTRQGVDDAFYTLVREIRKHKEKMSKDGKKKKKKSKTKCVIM
SMILES,DC50 [nM],Dmax [%]
"COC(C)COc1nc(N(C)C2CCNC2)c2cc(C3CC3)c(-c3c(C)c(F)cc4[nH]ncc34)c(OCc3ccc(-c4cn(C(C(=O)N5CC(O)CC5C(=O)NC(CO)c5ccc(-c6scnc6C)cc5)C(C)C)nn4)cc3)c2n1 [D7, (4R)-1-[(2S)-2-{4-[4-({[(7M)-6-cyclopropyl-7-(6-fluoro-5-methyl-1H-indazol-4-yl)-2-[(2S)-2-methoxypropoxy]-4-{methyl[(3S)-pyrrolidin-3-yl]amino}quinazolin-8-yl]oxy}methyl)phenyl]-1H-1,2,3-triazol-1-yl}-3-methylbutanoyl]-4-hydroxy-N-{(1R)-2-hydroxy-1-[4-(4-methyl-1,3-thiazol-5-yl)phenyl]ethyl}-L-prolinamide]",10,
"Cc1c(F)cc2[nH]ncc2c1-c1c(C2CC2)cc2c(N3CC4CC3CN4)nc(OC3CCOCC3)nc2c1OCc1ccc(C(=O)N2CCN(Cc3ccc4c(c3)n(C)c(=O)n4C3CCC(=O)NC3=O)CC2C)cc1 [D9, 3-(5-{[(3S)-4-{4-[({(7M)-6-cyclopropyl-4-[(1S,4S)-2,5-diazabicyclo[2.2.1]heptan-2-yl]-7-(6-fluoro-5-methyl-1H-indazol-4-yl)-2-[(oxan-4-yl)oxy]quinazolin-8-yl}oxy)methyl]benzoyl} -3-methylpiperazin-1-yl]methyl}-3-methyl-2-oxo-2,3-dihydro-1H-benzimidazol-1-yl)piperidine-2,6-dione]",13,86
"Cc1c(F)cc2[nH]ncc2c1-c1c(C2CC2)cc2c(N3C[C@@H]4C[C@H]3CN4)nc(OC3CCOCC3)nc2c1OCc1ccc(C(=O)N2CCN(Cc3ccc4c(N5CCC(=O)NC5=O)nn(C)c4c3)C[C@@H]2C)cc1 [D10, 1-(6-{[(3S)-4-{4-[({(7M)-6-cyclopropyl-4-[(1S,4S)-2,5-diazabicyclo[2.2.1]heptan-2-yl]-7-(6-fluoro-5-methyl-1H-indazol-4-yl)-2-[(oxan-4-yl)oxy]quinazolin-8-yl}oxy)methyl]benzoyl}-3-methylpiperazin-1-yl]methyl}-1-methyl-1H-indazol-3-yl)-1,3-diazinane-2,4-dione n-hydrochloride]",71,86
"CO[C@@H](C)COc1nc(N2C[C@@H]3C[C@H]2CN3)c2cc(C3CC3)c(-c3c(C)c(F)cc4[nH]ncc34)c(OCc3ccc(C(=O)N4CCN(Cc5ccc6c(c5)n(C)c(=O)n6C5CCC(=O)NC5=O)C[C@@H]4C)cc3)c2n1 (stereo partly drawn) [D11, 3-(5-{[(3S)-4-{4-[({(7M)-6-cyclopropyl-4-[(1S,4S)-2,5-diazabicyclo[2.2.1]heptan-2-yl]-7-(6-fluoro-5-methyl-1H-indazol-4-yl)-2-[(2S)-2-methoxypropoxy]quinazolin-8-yl}oxy)methyl]benzoyl}-3-methylpiperazin-1-yl]methyl}-3-methyl-2-oxo-2,3-dihydro-1H-benzimidazol-1-yl)piperidine-2,6-dione]",8,86
